From US20240335402A1, “BIODEGRADABLE ANTI-INFECTIVE FORMULATIONS” (New Mexico Tech University Research Park Corporation, priority 2023, published 2024)

Tested on: colistin (polymyxin E, or PME) resistant bacterium S. maltophilia
Test: Spot test on lawn of colistin resistant bacterium
Assay type: cell-based
Conditions: 10 μL spotted, 37° C., 2 days

O=C(O)CC[C@@H](C(=O)O)N(CC(=O)O)CC(=O)O [GLDA, N,N-Dicarboxymethyl glutamic acid]
activity / kill of S. maltophilia lawn: did not work as well as CTAC
